# Data published in patent US10183950B2, “Thienopyrimidine inhibitors of atypical protein kinase C” (Cancer Research Technology Limited, priority 2011, dated 2019).
# pIC50: −log10 of the molar value.
# Target: T1, full-length human PKCι (Homo sapiens, UniProt P41743)
# T1 construct: Recombinant, full-length human PKCι expressed in Sf21 insect cells is also commercially available; purchased; host or cells: Sf21 insect cells
# T1 sequence (P41743 1-596): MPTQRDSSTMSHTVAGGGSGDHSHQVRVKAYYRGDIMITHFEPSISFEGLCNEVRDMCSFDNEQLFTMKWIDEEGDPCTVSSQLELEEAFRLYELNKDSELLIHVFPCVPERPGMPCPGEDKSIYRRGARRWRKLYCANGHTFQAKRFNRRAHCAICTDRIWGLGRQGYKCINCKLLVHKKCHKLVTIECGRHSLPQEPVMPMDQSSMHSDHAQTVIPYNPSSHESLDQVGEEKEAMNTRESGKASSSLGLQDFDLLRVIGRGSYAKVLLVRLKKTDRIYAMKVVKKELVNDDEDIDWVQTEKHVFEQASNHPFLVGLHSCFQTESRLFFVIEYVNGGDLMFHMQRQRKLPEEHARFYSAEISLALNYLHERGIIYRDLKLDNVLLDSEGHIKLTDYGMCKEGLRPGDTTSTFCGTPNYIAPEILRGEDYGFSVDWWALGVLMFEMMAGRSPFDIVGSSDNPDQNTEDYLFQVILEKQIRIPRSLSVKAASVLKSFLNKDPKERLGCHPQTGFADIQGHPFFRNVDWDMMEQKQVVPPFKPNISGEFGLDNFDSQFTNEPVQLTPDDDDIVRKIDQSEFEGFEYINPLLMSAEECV
# Experiment: PKCι IC50 IMAP fluorescence polarisation assay, full-length enzyme
# Format: biochemical
# Details: full length PKCi at 15 μM ATP; read-out: IC50 in IMAP assay against full length PKCi
# Experimental: Assays are based on the ability of PKCι to phosphorylate a commercially available peptide substrate in vitro. […] Recombinant, full-length human PKCι expressed in Sf21 insect cells is also commercially available. Recombinant, kinase-domain human PKCι is expressed and purified in-house.
# The procedure below explains how dose response curves for inhibitors of PKCι are obtained.
# Compounds to be tested are dissolved in 100% DMSO. […] 1 μl is plated into 384 well black low-binding flat bottomed assay plates which are used immediately. Dilutions and additions of compound to assay plates are carried out using Matrix WellMate® and Matrix PlateMate® Plus liquid handling systems.
# The final concentration of peptide substrate in the assay is 100 nM. […] Relevant controls are included, namely no compound and no enzyme. […] The reaction is allowed to incubate for 60 minutes at room temperature, before the reaction is stopped and developed by the addition of 20 μl IMAP™ development reagent (Molecular Devices). IMAP development reagent consists of 0.25% (v/v) IMAP progressive binding reagent, 17% (v/v) IMAP progressive binding buffer A and 3% (v/v) IMAP progressive binding buffer B. The plates are then incubated for 2 hours at room temperature before being read using an appropriate plate reader, for example a Molecular Devices HT Analyst or a BMG Pherastar.
row,Structure (SMILES),pIC50
1,"COc1cccc(OC)c1-c1c(C)sc2c(NC[C@@H](N)Cc3ccccc3)nc(-c3ccncc3)nc12 [compound 454, (S)-N*1*-[7-(2,6-Dimethoxy-phenyl)-6-methyl-2-pyridin-4-yl-thieno[3,2-d]pyrimidin-4-yl]-3-phenyl-propane-1,2-diamine]",4.40 to 5.00
2,"COc1ncccc1-c1c(C)sc2c(NC[C@@H](N)Cc3ccccc3)nc(-c3ccncc3)nc12 [compound 465, (S)-N*1*-[7-(2-Methoxy-pyridin-3-yl)-6-methyl-2-pyridin-4-yl-thieno[3,2-d]pyrimidin-4-yl]-3-phenyl-propane-1,2-diamine]",4.40 to 5.00
3,"c1cc(-c2nc(N[C@@H]3CCNC3)c3sccc3n2)cc(NC2CC2)n1 [compound 594, [2-(2-Cyclopropylamino-pyridin-4-yl)-thieno[3,2-d]pyrimidin-4-yl]-(R)-pyrrolidin-3-yl-amine]",5.00 to 6.00
4,"NCc1ccc(-c2csc3c(NCC(N)Cc4ccccc4)nc(-c4ccncc4F)nc23)cc1 (stereo in doubt) [compound 427, (R)-N*1*-[7-(4-Aminomethyl-phenyl)-2-(3-fluoro-pyridin-4-yl)-thieno[3,2-d]pyrimidin-4-yl]-3-phenyl-propane-1,2-diamine]",5.00 to 6.00
5,"c1ccc(Nc2cc(-c3nc(N[C@@H]4CCNC4)c4sccc4n3)ccn2)cc1 [compound 573, [2-(2-Phenylamino-pyridin-4-yl)-thieno[3,2-d]pyrimidin-4-yl]-(R)-pyrrolidin-3-yl-amine]",5.00 to 6.00
6,"NC(CNc1nc(-c2ccncc2F)nc2c(-c3ccc(F)cc3)csc12)Cc1ccccc1 (stereo in doubt) [compound 430, (R)-N*1*-[7-(4-Fluoro-phenyl)-2-(3-fluoro-pyridin-4-yl)-thieno[3,2-d]pyrimidin-4-yl]-3-phenyl-propane-1,2-diamine]",5.00 to 6.00
7,"NC(=O)CN1CC[C@@H](Nc2nc(-c3ccncc3)nc3ccsc23)C1 [compound 320, 2-[(R)-3-(2-Pyridin-4-yl-thieno[3,2-d]pyrimidin-4-ylamino)-pyrrolidin-1-yl]-acetamide]",4.40 to 5.00
8,"N[C@H](CNc1nc(-c2cc[n+]([O-])cc2)nc2c(-c3ccn[nH]3)csc12)Cc1ccccc1 [compound 565, (S)—N*1*-[2-(1-Oxy-pyridin-4-yl)-7-(2H-pyrazol-3-yl)-thieno[3,2-d]pyrimidin-4-yl]-3-phenyl-propane-1,2-diamine]",5.00 to 6.00
9,"COc1ccccc1C[C@H](N)CNc1nc(-c2ccncc2)nc2c(Br)c(C(C)(C)C)sc12 [compound 303, (S)—N*1*-(7-bromo-6-tert-butyl-2-pyridin-4-yl-thieno[3,2-d]pyrimidin-4-yl)-3-(2-methoxy-phenyl)-propane-1,2-diamine]",4.40 to 5.00

# Results, then the compound that gave them:
row,pIC50,Structure (SMILES)
1,5.00 to 6.00,"Fc1cnc(Nc2ccccc2)cc1-c1nc(N[C@@H]2CCNC2)c2sccc2n1 [compound 579, [2-(5-Fluoro-2-phenylamino-pyridin-4-yl)-thieno[3,2-d]pyrimidin-4-yl]-(R)-pyrrolidin-3-yl-amine]"
2,5.00 to 6.00,"NC(CNc1nc(-c2ccncc2F)nc2c(-c3cccc(CO)c3)csc12)Cc1ccccc1 (stereo in doubt) [compound 425, {3-[4-((R)-2-Amino-3-phenyl-propylamino)-2-(3-fluoro-pyridin-4-yl)-thieno[3,2-d]pyrimidin-7-yl]-phenyl}-methanol]"
3,5.00 to 6.00,"N#Cc1ccc(Nc2cc(-c3nc(N[C@@H]4CCNC4)c4sccc4n3)ccn2)cc1 [compound 607, 4-{4-[4-((R)-Pyrrolidin-3-ylamino)-thieno[3,2-d]pyrimidin-2-yl]-pyridin-2-ylamino}-benzonitrile]"
4,6.00 to 7.00,"NC(CNc1nc(-c2ccncc2F)nc2c(-c3ccoc3)csc12)Cc1ccccc1 (stereo in doubt) [compound 426, (R)-N*1*-[2-(3-Fluoro-pyridin-4-yl)-7-furan-3-yl-thieno[3,2-d]pyrimidin-4-yl]-3-phenyl-propane-1,2-diamine]"
5,> 7.00,"C#Cc1csc2c(NC[C@@H](N)Cc3ccccc3)nc(-c3ccncc3)nc12 [compound 541, (S)-N*1*-(7-Ethynyl-2-pyridin-4-yl-thieno[3,2-d]pyrimidin-4-yl)-3-phenyl-propane-1,2-diamine]"
6,6.00 to 7.00,"CC(C)[C@H](N)CNc1nc(-c2ccncc2)nc2c(Br)csc12 [compound 347, (S)-N*1*-(7-Bromo-2-pyridin-4-yl-thieno[3,2-d]pyrimidin-4-yl)-3-methyl-butane-1,2-diamine]"
7,6.00 to 7.00,"c1ccc(-c2ccc(Nc3cc(-c4nc(N[C@@H]5CCNC5)c5sccc5n4)ccn3)nc2)cc1 [compound 601, {2-[2-(5-Phenyl-pyridin-2-ylamino)-pyridin-4-yl]-thieno[3,2-d]pyrimidin-4-yl}-(R)-pyrrolidin-3-yl-amine]"
8,6.00 to 7.00,"CCCC#Cc1csc2c(NC[C@@H](N)Cc3ccccc3)nc(-c3ccncc3)nc12 [compound 401, (S)-N*1*-(7-Pent-1-ynyl-2-pyridin-4-yl-thieno[3,2-d]pyrimidin-4-yl)-3-phenyl-propane-1,2-diamine]"
9,6.00 to 7.00,"CCC[C@H](O)C#Cc1csc2c(NC[C@@H](N)Cc3ccccc3)nc(-c3ccncc3)nc12 [compound 526, (S)-1-[4-((S)-2-Amino-3-phenyl-propylamino)-2-pyridin-4-yl-thieno[3,2-d]pyrimidin-7-yl]-hex-1-yn-3-ol]"
10,5.00 to 6.00,"Fc1cnccc1-c1nc(N[C@@H]2CCNC2)c2scc(Br)c2n1 [compound 352, [7-Bromo-2-(3-fluoro-pyridin-4-yl)-thieno[3,2-d]pyrimidin-4-yl]-(R)-pyrrolidin-3-yl-amine]"
11,> 7.00,"N[C@H](CNc1nc(-c2ccncc2F)nc2c(C#CCO)csc12)Cc1ccccc1 [compound 506, 3-[4-((S)-2-Amino-3-phenyl-propylamino)-2-(3-fluoro-pyridin-4-yl)-thieno[3,2-d]pyrimidin-7-yl]-prop-2-yn-1-ol]"
12,5.00 to 6.00,"Cc1sc2c(NC[C@@H](N)Cc3ccccc3)nc(-c3ccncc3)nc2c1-c1ccccc1 [compound 449, (S)-N*1*-(6-Methyl-7-phenyl-2-pyridin-4-yl-thieno[3,2-d]pyrimidin-4-yl)-3-phenyl-propane-1,2-diamine]"
13,5.00 to 6.00,"Cn1nccc1-c1csc2c(NC[C@@H](N)Cc3ccccc3)nc(-c3ccncc3)nc12 [compound 391, (S)-N*1*-[7-(2-Methyl-2H-pyrazol-3-yl)-2-pyridin-4-yl-thieno[3,2-d]pyrimidin-4-yl]-3-phenyl-propane-1,2-diamine]"
14,5.00 to 6.00,"CNCCNc1nc(-c2ccncc2)nc2c(Br)csc12 [compound 345, N-(7-Bromo-2-pyridin-4-yl-thieno[3,2-d]pyrimidin-4-yl)-N′-methyl-ethane-1,2-diamine]"
15,6.00 to 7.00,"N[C@H](CNc1nc(-c2ccncc2)nc2c(Nc3ncccn3)csc12)Cc1ccccc1 [compound 488, N*4*-((S)-2-Amino-3-phenyl-propyl)-2-pyridin-4-yl-N*7*-pyrimidin-2-yl-thieno[3,2-d]pyrimidine-4,7-diamine]"
16,> 7.00,"N[C@H](CNc1nc(-c2ccncc2)nc2c(Nc3ccccn3)csc12)Cc1ccccc1 [compound 486, N*4*-((S)-2-Amino-3-phenyl-propyl)-2-pyridin-4-yl-N*7*-pyridin-2-yl-thieno[3,2-d]pyrimidine-4,7-diamine]"
17,6.00 to 7.00,"CCNC(=O)c1csc2c(NC[C@@H](N)Cc3ccccc3)nc(-c3ccncc3)nc12 [compound 554, 4-((S)-2-Amino-3-phenyl-propylamino)-2-pyridin-4-yl-thieno[3,2-d]pyrimidine-7-carboxylic acid ethylamide]"

# Same assay, conditions: full length PKCi at 15 μM ATP; read-out: IC50 in IMAP assay against full length PKCi (Activity)
row,pIC50,Structure (SMILES)
1,4.40 to 5.00,"CC(C)(C)C(=O)N1CCc2c(sc3nc(-c4ccncc4)nc(NCCN)c23)C1 [compound 104, 1-[4-(2-amino-ethylamino)-2-pyridin-4-yl-5,8-dihydro-6H-pyrido[4′,3′:4,5]thieno[2,3-d]pyrimidin-7-yl]-2,2-dimethyl-propan-1-one]"
2,5.00 to 6.00,NCCNc1nc(-c2ccncc2)nc2sc3c(c12)CCC1(C3)OCCO1 [compound 42]
3,5.00 to 6.00,"N[C@H](CNc1nc(-c2ccncc2)nc2sc3c(c12)CCCC3)Cc1ccccn1 [compound 58, (S)-3-Pyridin-2-yl-N*1*-(2-pyridin-4-yl-5,6,7,8-tetrahydro-benzo[4,5]thieno[2,3-d]pyrimidin-4-yl)-propane-1,2-diamine]"
